{
  "source": "patent US9808469B2",
  "about": "“Antitumor activity of multi-kinase inhibitors in triple negative breast cancer” (ENTRECHEM, S.L, priority 2014, dated 2017)",
  "type_in_all_cases": "cell-based",
  "key": {"MDA-MB-231 cells": {"tested_on": "MDA-MB-231 cells", "experiment": "MTT metabolization, inhibition of MDA-MB-231 cell proliferation", "procedure": "(§1) These triple negative breast cancer cell lines were obtained from the American Type Culture Collection Cell Biology Collection (ATCC) (Manassas, Va.). The medium was changed every 2 days.\n(§2) Cell proliferation and growth experiments were carried out using 3-(4,5-dimethylthiazol-2-yl)-2,5-diphenyltetrazolium bromide (MTT) uptake assays, where MTT is reduced to purple formazan by the mitochondria of living cells. Increase in cell number is detected by augmented MTT metabolization, and decrease in cell number is reflected by a decrease. […] The cells were treated with the drug at different concentrations to plot the dose-response curves in all cancer cell lines using in the study. […] After treatment, each well was replaced with 250 μL of fresh medium containing MTT ([…]) and incubated for 1 hour. The medium was then removed and 500 μL of dimethyl sulfoxide was added to each well. The plate was agitated in the dark for 5 minutes to dissolve the MTT-formazan crystals. The absorbance of the samples was recorded at 562 nm in a multi-well plate reader (BMG labtech). Results were plotted as the mean values of quadruplicates from a representative experiment that was repeated at least two independent times.\n(§3) Combination index values less than 1 indicate synergism, values equal to 1 indicate an additive effect, whereas values greater than 1 indicate antagonism. Combination index values from three independent experiments were generated."}, "BT-549 cells": {"tested_on": "BT-549 cells", "experiment": "MTT metabolization, inhibition of BT-549 cell proliferation", "procedure": "as §1, §2, §3"}, "HS578T cells": {"tested_on": "HS578T cells", "experiment": "MTT metabolization, inhibition of HS578T cell proliferation", "procedure": "as §1, §2, §3"}},
  "data": [
    {"smiles": "N.N.O=C([O-])C1(C(=O)[O-])CCC1.[Pt+2]", "note": "[Carboplatin, carboplatin, reference compound]", "values": [
      {"measurement": "Percentage inhibition Carboplatin mean", "setting": "MDA-MB-231 cells; Carboplatin 80 nM alone", "result": 74.70, "unit": "%"},
      {"measurement": "Percentage inhibition Carboplatin mean", "setting": "MDA-MB-231 cells; Carboplatin 120 nM alone", "result": 62.30, "unit": "%"},
      {"measurement": "Percentage inhibition Carboplatin mean", "setting": "MDA-MB-231 cells; Carboplatin 160 nM alone", "result": 61.11, "unit": "%"},
      {"measurement": "Percentage inhibition Carboplatin mean", "setting": "MDA-MB-231 cells; Carboplatin 200 nM alone", "result": 58.21, "unit": "%"},
      {"measurement": "Percentage inhibition Carboplatin mean", "setting": "BT-549 cells; Carboplatin 80 nM alone", "result": 37.09, "unit": "%"},
      {"measurement": "Percentage inhibition Carboplatin mean", "setting": "BT-549 cells; Carboplatin 120 nM alone", "result": 21.43, "unit": "%"},
      {"measurement": "Percentage inhibition Carboplatin mean", "setting": "BT-549 cells; Carboplatin 160 nM alone", "result": 19.39, "unit": "%"},
      {"measurement": "Percentage inhibition Carboplatin mean", "setting": "BT-549 cells; Carboplatin 200 nM alone", "result": 15.69, "unit": "%"},
      {"measurement": "Percentage inhibition Carboplatin mean", "setting": "HS578T cells; Carboplatin 80 nM alone", "result": 70.90, "unit": "%"},
      {"measurement": "Percentage inhibition Carboplatin mean", "setting": "HS578T cells; Carboplatin 120 nM alone", "result": 60.26, "unit": "%"},
      {"measurement": "Percentage inhibition Carboplatin mean", "setting": "HS578T cells; Carboplatin 160 nM alone", "result": 50.49, "unit": "%"},
      {"measurement": "Percentage inhibition Carboplatin mean", "setting": "HS578T cells; Carboplatin 200 nM alone", "result": 24.33, "unit": "%"}
    ]},
    {"smiles": "CC(=O)O[C@@]12CO[C@@H]1C[C@H](O)[C@@]1(C)C(=O)[C@H](O)C3=C(C)[C@@H](OC(=O)[C@H](O)[C@@H](NC(=O)OC(C)(C)C)c4ccccc4)C[C@@](O)([C@@H](OC(=O)c4ccccc4)[C@H]21)C3(C)C", "note": "[Docetaxel, docetaxel, reference compound]", "values": [
      {"measurement": "viability at 0.0004 µM", "setting": "MDA-MB-231 cells; Homo sapiens, MDA-MB-231, Docetaxel 0.4 nM alone, read-out: Percentage inhibition Docetaxel mean", "result": 59.3, "unit": "%"},
      {"measurement": "viability at 0.0008 µM", "setting": "MDA-MB-231 cells; Homo sapiens, MDA-MB-231, Docetaxel 0.8 nM alone, read-out: Percentage inhibition Docetaxel mean", "result": 33.8, "unit": "%"},
      {"measurement": "viability at 0.0012 µM", "setting": "MDA-MB-231 cells; Homo sapiens, MDA-MB-231, Docetaxel 1.2 nM alone, read-out: Percentage inhibition Docetaxel mean", "result": 25.3, "unit": "%"},
      {"measurement": "viability at 0.0016 µM", "setting": "MDA-MB-231 cells; Homo sapiens, MDA-MB-231, Docetaxel 1.6 nM alone, read-out: Percentage inhibition Docetaxel mean", "result": 25.3, "unit": "%"},
      {"measurement": "inhibition at 0.0004 µM", "setting": "BT-549 cells; Homo sapiens, BT-549, Docetaxel 0.4 nM alone, read-out: Percentage inhibition Docetaxel mean", "result": 82, "unit": "%"},
      {"measurement": "inhibition at 0.0008 µM", "setting": "BT-549 cells; Homo sapiens, BT-549, Docetaxel 0.8 nM alone, read-out: Percentage inhibition Docetaxel mean", "result": 36.1, "unit": "%"},
      {"measurement": "inhibition at 0.0012 µM", "setting": "BT-549 cells; Homo sapiens, BT-549, Docetaxel 1.2 nM alone, read-out: Percentage inhibition Docetaxel mean", "result": 36.5, "unit": "%"},
      {"measurement": "inhibition at 0.0016 µM", "setting": "BT-549 cells; Homo sapiens, BT-549, Docetaxel 1.6 nM alone, read-out: Percentage inhibition Docetaxel mean", "result": 36.1, "unit": "%"},
      {"measurement": "percent inhibition of cell proliferation at 0.0004 µM", "setting": "HS578T cells; Homo sapiens, Hs-578T, Docetaxel 0.4 nM alone, read-out: Percentage inhibition Docetaxel mean", "result": 73, "unit": "%"},
      {"measurement": "percent inhibition of cell proliferation at 0.0008 µM", "setting": "HS578T cells; Homo sapiens, Hs-578T, Docetaxel 0.8 nM alone, read-out: Percentage inhibition Docetaxel mean", "result": 49.6, "unit": "%"},
      {"measurement": "percent inhibition of cell proliferation at 0.0012 µM", "setting": "HS578T cells; Homo sapiens, Hs-578T, Docetaxel 1.2 nM alone, read-out: Percentage inhibition Docetaxel mean", "result": 45.8, "unit": "%"},
      {"measurement": "percent inhibition of cell proliferation at 0.0016 µM", "setting": "HS578T cells; Homo sapiens, Hs-578T, Docetaxel 1.6 nM alone, read-out: Percentage inhibition Docetaxel mean", "result": 47.9, "unit": "%"}
    ]}
  ]
}
